Laboratory results published in patent publication US20140336248A1, “THERAPEUTIC COMPOSITIONS AND RELATED METHODS OF USE” (priority 2011, published 2014).

What was measured:
ICR mice [1] = test: Tolerability 0.03, 0.1, 0.3, 1.0 mg/kg IV in 5% ethanol/10% propylene glycol/20% Solutol HS 15, 4 days (Example Q); type: in vivo, mouse; conditions: 5% ethanol/10% propylene glycol/20% Solutol HS 15 (heading)
Method: (§1) Using the techniques described above in Example A, an aqueous vehicle comprising 5% ethanol (v/v), 10% propylene glycol (v/v), and 10% Solutol® HS 15 (v/v) was prepared. An appropriate amount of salinomycin sodium was dissolved into the vehicle to make solutions having concentrations of 0.006, 0.02, 0.06, and 0.2 mg/mL. Ten male ICR mice (Sino-British SIPPR/BK Lab Animal Ltd, Shanghai, China) were assigned to control and treatment groups. […] The individual animal number was marked on the tail, and study number comprised a unique identification for each animal. Animal identification was verified during the course of the study. The animals were housed two per cage in stainless steel suspended cage in an environmentally controlled room. SLACOM (Rodent Diet #20110615029, Shanghai SLAC Laboratory Animal Co. Ltd.) was available ad libitum. Temperature and humidity were monitored and recorded twice daily.
(§2) Each composition and the vehicle (control) were administered once daily to each of two mice via intravenous bolus injection for 4 consecutive days. The dose levels for the treated groups and the control group are in the below table. Individual doses were based on the most recent body weight.
(§3) Body weights for all animals were measured and recorded at receipt, prior to randomization, and once daily during the study. Body weight change was calculated for mean value of animals relative to Day 1 mean body weight value.

ICR mice [2] = test: Tolerability IV in 10% ethanol/10% Solutol HS 15, 5 days (Example K); type: in vivo, mouse; conditions: for Clinical observations: post dosage
Method: (§4) Injectable salinomycin compositions were prepared as follows: 0.6 mg/mL stock solution: 1.2 mg of salinomycin sodium was added to 200 μL ethanol and vortexed for 2 minutes and sonicated for 30 seconds to yield a clear solution. To this solution was next added 200 μL Solutol® HS 15, with vortexing for 2 minutes. Finally, 1.6 mL water was added to produce a clear stock solution of 0.6 mg/mL salinomycin sodium.
(§5) Six male ICR mice (Sino-British SIPPR/BK Lab Animal Ltd, Shanghai, China) were assigned to control and treatment groups. […] The individual animal number marked on the tail, and study number comprised a unique identification for each animal. Animal identification was verified during the course of the study. The animals were housed two per cage in stainless steel suspended cage in an environmentally controlled room. SLACOM (Rodent Diet #20110615029, Shanghai SLAC Laboratory Animal Co. Ltd.) was available ad libitum. Temperature and humidity were monitored and recorded twice daily.
(§6) Each composition and the vehicle (control) were administered once daily to each of two mice via intravenous bolus injection for 5 consecutive days. The dose levels for the treated groups and the control group are in the below table. Individual doses were based on the most recent body weight.
as §3

ICR mice [3] = test: Tolerability 5.0, 10.0 mg/kg orally in 1% ethanol/4% propylene glycol/5% Solutol HS 15 (Example J); type: in vivo, mouse
Method: Fompositions for oral administration were prepared as follows: A) 1.0 mg/mL composition: 5.05 mg of salinomycin sodium was added to 50 μL ethanol and vortexed for 1 minute to yield a clear solution. 200 μL of propylene glycol was then added and vortexed for 1 minute, yielding a clear solution. To this solution was next added 250 μL Solutol® HS 15, with vortexing for 1 minute and sonicating for 1 minute, to yield a clear solution.
as §5
Each composition and the vehicle (control) were administered once daily to each of two mice via oral gavage for 5 consecutive days. The dose levels for the treated groups and the control group are in the below table. Individual doses were based on the most recent body weight.
as §3

ICR mice [4] = test: Tolerability 0.1, 0.3, 1.0, 3.0 mg/kg IV in 10% ethanol/10% Solutol HS 15, 4 days (Example M); type: in vivo, mouse
Method: as §1, with “B,” for “A,”, “10%” for “5%”, “(v/v)” for “(v/v), 10% propylene glycol (v/v),”, “of” for “of 0.006,”, “0.06, 0.2,” for “0.06,”, “0.3” for “0.2”
as §2, §3

ICR mice [5] = test: Tolerability IV in 5% ethanol/15% Solutol HS 15, 5 days (Example L); type: in vivo, mouse; conditions: for Clinical observations: one animal
Method: as §4, with “to 100” for “to 200”, “for 2 minutes” for “for 30 seconds”, “added 300” for “added 200”, “for 1 minute.” for “for 2 minutes.”
as §5, §6, §3

[6] = type: physicochemical
Text: The precipitate observed in Batch A in Example S was isolated and subjected to XRPD analysis. Comparative evaluation was done as shown in FIG. 11 using (1) API used in the formulation (Batch C, manufactured by Neuland Laboratories Ltd., India) and (2) API from a different lot (Batch D).

ICR mice [7] = test: Tolerability 0.1, 0.3, 1.0, 3.0 mg/kg IV in 5% ethanol/15% Solutol HS 15, 4 days (Example N); type: in vivo, mouse
Method: as §1, with “(v/v)” for “(v/v), 10% propylene glycol (v/v),”, “15%” for “10%”, “of” for “of 0.006,”, “0.06, 0.2,” for “0.06,”, “0.3” for “0.2”
as §2, §3

[8] = 1.0 mg/kg IV once daily 4 days, after the first administration, no abnormalities on days 2, 3, 4

Compound: CC[C@@H](C(=O)[C@@H](C)[C@@H](O)[C@H](C)[C@@H]1O[C@@H]([C@@H](CC)C(=O)O)CC[C@@H]1C)[C@H]1O[C@]2(C=C[C@@H](O)[C@]3(CC[C@@](C)([C@H]4CC[C@](O)(CC)[C@H](C)O4)O3)O2)[C@H](C)C[C@@H]1C [salinomycin sodium]
- Clinical observations (ICR mice [1]; 0.03 mg/kg IV once daily 4 days): no abnormalities
- Clinical observations (ICR mice [1]; 0.1 mg/kg IV once daily 4 days, after administration, no abnormalities on days 2, 3, 4): decreased activity and discolored urine (red)
- Clinical observations (ICR mice [1]; 0.3 mg/kg IV once daily 4 days, after administration, no abnormalities on days 2, 3, 4): decreased activity and discolored urine (red)
- Mortality (ICR mice [1]; 1.0 mg/kg IV): died shortly after administration
- Body weight (ICR mice [1]; each group surviving administration, IV once daily 4 days, FIG. 10): relatively stable
- Clinical observations (ICR mice [2]; 0.1 mg/kg IV once daily 5 days): decreased activity (e.g., more time spent laying prostrate), rapid breathing, and partially-closed eyelids
- Clinical observations (ICR mice [2]; 0.3 mg/kg IV once daily 5 days): decreased activity levels, partially-closed eyelids, and skin cold to the touch
- Body weight change relative to Day 1 (ICR mice [2]; 0.1, 0.3 mg/kg IV once daily 5 days, FIG. 4): all groups added weight
- Abnormalities detected (ICR mice [3]; 5, 10 mg/kg oral gavage once daily 5 days, 1% ethanol/4% propylene glycol/5% Solutol HS 15): no abnormalities
- Body weight change relative to Day 1 (ICR mice [3]; 5, 10 mg/kg oral gavage once daily 5 days, 1% ethanol/4% propylene glycol/5% Solutol HS 15, FIG. 3): all groups added weight
- Maximum oral tolerated dosage (ICR mice [3]; oral gavage once daily 5 days, male ICR mice): at least 10 mg/kg
- Clinical observations (ICR mice [4]; 0.1 mg/kg IV once daily 4 days): no abnormalities
- Clinical observations (ICR mice [4]; 0.3 mg/kg IV once daily 4 days, dissipated after 3 hours, no abnormalities on days 2, 3, 4): skin cold to the touch after the first administration
- Clinical observations (ICR mice [4]; [8]): decreased activity, decreased grasping, and skin cold to the touch
- Mortality (ICR mice [4]; 3.0 mg/kg IV): died shortly after administration
- Body weight (ICR mice [4]; each group surviving administration, IV once daily 4 days, FIG. 6): relatively stable
- Clinical observations (ICR mice [5]; 0.1 mg/kg IV once daily 5 days): decreased activity immediately after dosing on day 1
- Clinical observations (ICR mice [5]; 0.3 mg/kg IV once daily 5 days): hypersensitivity to touch after dosing on day 1
- Body weight change relative to Day 1 (ICR mice [5]; 0.1, 0.3 mg/kg IV once daily 5 days, FIG. 5): all groups added weight
- Solubility (conclusion) [6]: inadequate solubility
- Solid form by XRPD ([6]; API used in the formulation along with API of a different lot): amorphous nature
- Clinical observations (ICR mice [7]; 0.1 mg/kg IV once daily 4 days): no abnormalities
- Clinical observations (ICR mice [7]; 0.3 mg/kg IV once daily 4 days): no abnormalities
- Clinical observations (ICR mice [7]; [8]): decreased activity, decreased grasping, and laying prostrate
- Mortality (ICR mice [7]; 3.0 mg/kg IV): died shortly after administration
- Body weight (ICR mice [7]; each group surviving administration, IV once daily 4 days, FIG. 7): relatively stable
